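Dose response: 5 concentrations. Exposure: 48 h. Format: 96-well plates. Endpoint: linear interpolation; highest concentration if not reached. At the GI50, growth is halved. The concentration for full growth arrest is given as TGI.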
Key:
Assay in all cases: NCI tumour cell line growth inhibition, 48 h
[1] = tested on: 786-0 renal
[2] = tested on: A498 renal
[3] = tested on: A549 NSCLC
[4] = tested on: ACHN renal
[5] = tested on: BT-549 breast
[6] = tested on: CAKI-1 renal
[7] = tested on: CCRF-CEM leukemia
[8] = tested on: COLO 205 colon
[9] = tested on: DU-145 prostate
[10] = tested on: EKVX NSCLC
[11] = tested on: HCC-2998 colon
[12] = tested on: HCT-116 colon
[13] = tested on: HCT-15 colon
[14] = tested on: HL-60(TB) leukemia
[15] = tested on: HOP-62 NSCLC
[16] = tested on: HOP-92 NSCLC
[17] = tested on: HS 578T breast
[18] = tested on: HT29 colon
[19] = tested on: IGROV1 ovarian
[20] = tested on: K-562 leukemia
[21] = tested on: KM12 colon
[22] = tested on: LOX IMVI melanoma
[23] = tested on: M14 melanoma
[24] = tested on: MALME-3M melanoma
[25] = tested on: MCF7 breast
[26] = tested on: MDA-MB-231 breast
[27] = tested on: MDA-MB-435
[28] = tested on: MOLT-4 leukemia
[29] = tested on: NCI-H226 lung
[30] = tested on: NCI-H23 lung
[31] = tested on: NCI-H460 lung
[32] = tested on: NCI-H522 lung
[33] = tested on: NCI/ADR-RES ovarian
[34] = tested on: OVCAR-3 ovarian
[35] = tested on: OVCAR-4 ovarian
[36] = tested on: OVCAR-5 ovarian
[37] = tested on: OVCAR-8 ovarian
[38] = tested on: PC-3 prostate
[39] = tested on: RPMI-8226 leukemia
[40] = tested on: RXF 393 renal
[41] = tested on: SF-268 CNS
[42] = tested on: SF-295 CNS
[43] = tested on: SF-539 CNS
[44] = tested on: SK-MEL-2 melanoma
[45] = tested on: SK-MEL-28 melanoma
[46] = tested on: SK-MEL-5 melanoma
[47] = tested on: SK-OV-3 ovarian
[48] = tested on: SN12C renal
[49] = tested on: SNB-19 CNS
[50] = tested on: SNB-75 CNS
[51] = tested on: SR leukemia
[52] = tested on: SW-620 colon
[53] = tested on: T-47D breast
[54] = tested on: TK-10 renal
[55] = tested on: U251 CNS
[56] = tested on: UACC-257 melanoma
[57] = tested on: UACC-62 melanoma
[58] = tested on: UO-31 renal

With CN(C)C(=S)N=Nc1c(O)[nH]c2ccccc12 the GI50 [1] was 0.891 µM, the TGI [1] was 12.2 µM and the GI50 [2] was 6.28 µM. For the same molecule, the TGI [2] was 20.4 µM, the GI50 [3] was 0.465 µM and the TGI [3] was 18.8 µM. It also gave a GI50 [4] of 0.526 µM, a TGI [4] of 11.4 µM and a GI50 [5] of 0.763 µM. It also gave a TGI [5] of 20.8 µM, a GI50 [6] of 0.257 µM and a TGI [6] of 1.26 µM. The GI50 [7] was 0.298 µM, the GI50 [8] was 0.356 µM and the TGI [8] was 3.56 µM. For the same molecule, the GI50 [9] was 0.955 µM, the TGI [9] was 11.4 µM and the GI50 [10] was 0.397 µM. The TGI [10] was 11 µM, the GI50 [11] was 1.54 µM and the TGI [11] was 17.2 µM. For the same molecule, the GI50 [12] was 0.303 µM, the TGI [12] was 3 µM and the GI50 [13] was 0.455 µM. For the same molecule, the TGI [13] was 23.4 µM, the GI50 [14] was 1.32 µM and the TGI [14] was 7.24 µM. It also gave a GI50 [15] of 0.708 µM, a TGI [15] of 14.7 µM and a GI50 [16] of 0.761 µM. For the same molecule, the TGI [16] was 15.9 µM, the GI50 [17] was 2.95 µM and the TGI [17] was 67.6 µM. It also gave a GI50 [18] of 0.558 µM, a TGI [18] of 17 µM and a GI50 [19] of 0.508 µM. It also gave a TGI [19] of 7.39 µM, a GI50 [20] of 0.475 µM and a TGI [20] greater than 57.8 µM. For the same molecule, the GI50 [21] was 0.496 µM, the TGI [21] was 12.9 µM and the GI50 [22] was 0.46 µM. It also gave a TGI [22] of 13.5 µM, a GI50 [23] of 0.484 µM and a TGI [23] of 9.41 µM. It also gave a GI50 [24] of 1.75 µM, a TGI [24] of 14.2 µM and a GI50 [25] of 0.552 µM. It also gave a TGI [25] of 13.3 µM, a GI50 [26] of 1.11 µM and a TGI [26] of 17.6 µM. For the same molecule, the GI50 [27] was 0.757 µM, the TGI [27] was 17.3 µM and the GI50 [28] was 0.619 µM. The TGI [28] was greater than 49.7 µM, the GI50 [29] was 0.642 µM and the TGI [29] was 6.43 µM. The GI50 [30] was 0.656 µM, the TGI [30] was 25 µM and the GI50 [31] was 0.374 µM. It also gave a TGI [31] of 2.49 µM, a GI50 [32] of 0.355 µM and a TGI [32] of 11 µM. The GI50 [33] was 0.334 µM, the TGI [33] was 2.15 µM and the GI50 [34] was 0.261 µM. For the same molecule, the TGI [34] was 1.18 µM, the GI50 [35] was 0.394 µM and the TGI [35] was 5.59 µM. It also gave a GI50 [36] of 1.49 µM, a TGI [36] of 21 µM and a GI50 [37] of 0.525 µM. For the same molecule, the TGI [37] was 26 µM, the GI50 [38] was 0.566 µM and the TGI [38] was 29.7 µM. The GI50 [39] was 0.418 µM, the TGI [39] was 33.5 µM and the GI50 [40] was 1.05 µM. The TGI [40] was 14.5 µM, the GI50 [41] was 0.593 µM and the TGI [41] was 12.6 µM. It also gave a GI50 [42] of 0.315 µM, a TGI [42] of 14.2 µM and a GI50 [43] of 0.499 µM. It also gave a TGI [43] of 8.39 µM, a GI50 [44] of 0.8 µM and a TGI [44] of 19.8 µM. The GI50 [45] was 2.57 µM, the TGI [45] was 22.7 µM and the GI50 [46] was 0.626 µM. For the same molecule, the TGI [46] was 12.5 µM, the GI50 [47] was 0.79 µM and the TGI [47] was 13.9 µM. The GI50 [48] was 0.578 µM, the TGI [48] was 17.9 µM and the GI50 [49] was 0.546 µM. The TGI [49] was 15 µM, the GI50 [50] was 3.01 µM and the TGI [50] was 18.5 µM. For the same molecule, the GI50 [51] was 0.429 µM, the TGI [51] was 9.38 µM and the GI50 [52] was 0.576 µM. For the same molecule, the TGI [52] was 21.6 µM, the GI50 [53] was 0.404 µM and the TGI [53] was 10.2 µM. For the same molecule, the GI50 [54] was 0.721 µM, the TGI [54] was 14.7 µM and the GI50 [55] was 0.392 µM. It also gave a TGI [55] of 27.6 µM, a GI50 [56] of 2.31 µM and a TGI [56] of 17 µM. It also gave a GI50 [57] of 0.578 µM, a TGI [57] of 4.56 µM and a GI50 [58] of 0.384 µM. It also gave a TGI [58] of 6.03 µM.
For C[C@H]1[C@H](C)CC[C@]2(C(=O)O)CC[C@]3(C)C(=CC[C@@H]4[C@@]5(C)C/C(=C/c6cccnc6)[C@H](O)C(C)(C)[C@@H]5CC[C@]43C)[C@H]12, the GI50 [1] was 25.9 µM, the TGI [1] was greater than 100 µM and the GI50 [2] was greater than 100 µM. It also gave a TGI [2] greater than 100 µM, a GI50 [3] of 5.27 µM and a TGI [3] of 62.4 µM. The GI50 [4] was 10.2 µM, the TGI [4] was greater than 100 µM and the GI50 [5] was 18.3 µM. The TGI [5] was greater than 100 µM, the GI50 [6] was 17.8 µM and the TGI [6] was greater than 100 µM. The GI50 [7] was 6.43 µM, the TGI [7] was 40.8 µM and the GI50 [8] was 14.6 µM. The TGI [8] was 32.4 µM, the GI50 [9] was 15.4 µM and the TGI [9] was greater than 100 µM. It also gave a GI50 [10] of 13.3 µM, a TGI [10] of 87.6 µM and a GI50 [11] of 15.7 µM. For the same molecule, the TGI [11] was 43.5 µM, the GI50 [12] was 10.7 µM and the TGI [12] was 26.8 µM. It also gave a GI50 [13] of 10.7 µM, a TGI [13] of 52 µM and a GI50 [14] of 9.83 µM. For the same molecule, the TGI [14] was 32.6 µM, the GI50 [15] was 16.4 µM and the TGI [15] was 55.6 µM. For the same molecule, the GI50 [16] was 13.8 µM, the TGI [16] was 67.7 µM and the GI50 [17] was 28.8 µM. The TGI [17] was greater than 100 µM, the GI50 [18] was 14.4 µM and the TGI [18] was 33.9 µM. The GI50 [19] was 26.4 µM, the TGI [19] was greater than 100 µM and the GI50 [20] was 6.79 µM. It also gave a TGI [20] greater than 100 µM, a GI50 [21] of 7.61 µM and a TGI [21] of 36.1 µM. It also gave a GI50 [22] of 13.4 µM, a TGI [22] of 28.1 µM and a GI50 [23] of 17.7 µM. For the same molecule, the TGI [23] was 49 µM, the GI50 [24] was 18.3 µM and the TGI [24] was 51.2 µM. For the same molecule, the GI50 [25] was 12.1 µM, the TGI [25] was greater than 100 µM and the GI50 [26] was 22.5 µM. It also gave a TGI [26] of 72.1 µM, a GI50 [27] of 27.6 µM and a TGI [27] greater than 100 µM. It also gave a GI50 [28] of 8.74 µM, a TGI [28] of 58.2 µM and a GI50 [29] of 15.3 µM. It also gave a TGI [29] of 56.8 µM, a GI50 [30] of 17.4 µM and a TGI [30] greater than 100 µM. It also gave a GI50 [31] of 8.88 µM, a TGI [31] of 26.6 µM and a GI50 [32] of 13 µM. For the same molecule, the TGI [32] was 94.3 µM, the GI50 [33] was 18.5 µM and the TGI [33] was 68.5 µM. The GI50 [34] was 13.5 µM, the TGI [34] was 31.1 µM and the GI50 [35] was 43 µM. The TGI [35] was greater than 100 µM, the GI50 [36] was 20.9 µM and the TGI [36] was 64.8 µM. The GI50 [37] was 20.5 µM, the TGI [37] was greater than 100 µM and the GI50 [38] was 6.35 µM. For the same molecule, the TGI [38] was greater than 100 µM, the GI50 [39] was 6.03 µM and the TGI [39] was 41.5 µM. It also gave a GI50 [40] of 13.7 µM, a TGI [40] of 36.6 µM and a GI50 [41] of 24.3 µM. For the same molecule, the TGI [41] was greater than 100 µM, the GI50 [42] was 4.83 µM and the TGI [42] was 25.8 µM. For the same molecule, the GI50 [43] was 15.6 µM, the TGI [43] was 36.3 µM and the GI50 [44] was 13.9 µM. It also gave a TGI [44] of 44.4 µM, a GI50 [45] of 13.7 µM and a TGI [45] of 34.6 µM. For the same molecule, the GI50 [46] was 13.7 µM, the TGI [46] was 35.7 µM and the GI50 [47] was 19.9 µM. It also gave a TGI [47] greater than 100 µM, a GI50 [48] of 18.1 µM and a TGI [48] of 97.3 µM. The GI50 [49] was 20.5 µM, the TGI [49] was greater than 100 µM and the GI50 [50] was 28.6 µM. For the same molecule, the TGI [50] was greater than 100 µM, the GI50 [51] was 20.7 µM and the TGI [51] was 82.8 µM. It also gave a GI50 [52] of 20.9 µM, a TGI [52] greater than 100 µM and a GI50 [53] of 9.88 µM. It also gave a TGI [53] greater than 100 µM, a GI50 [54] of 28.4 µM and a TGI [54] greater than 100 µM. It also gave a GI50 [55] of 10.9 µM, a TGI [55] of 27.8 µM and a GI50 [56] of 21 µM. It also gave a TGI [56] of 81.2 µM, a GI50 [57] of 11.7 µM and a TGI [57] of 35 µM. The GI50 [58] was 12.5 µM and the TGI [58] was 26.4 µM.

Reference: PubChem BioAssay (NCI)
